Experiment in all cases: relative viability (nuclei count vs DMSO), 5 days (fraction); higher = more cells survive
Compound in assay [1]: NC1(c2ccc(-c3nc4ccn5c(=O)[nH]nc5c4cc3-c3ccccc3)cc2)CCC1 [MK-2206] + CC1(C)CCC(c2ccc(Cl)cc2)=C(CN2CCN(c3ccc(C(=O)NS(=O)(=O)c4ccc(N[C@H](CCN5CCOCC5)CSc5ccccc5)c(S(=O)(=O)C(F)(F)F)c4)cc3)CC2)C1 [Navitoclax] (partner 0.5 µM)
The essentials:
(§1)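 The day after seeding in 1536-well plates, lung cancer cell lines were treated by pin tool with a single drug, or with a fixed anchor-drug dose together with five library-drug doses (not always all listed) in √10 steps. After 5 days, a combined fix-and-stain solution (final 0.05% Triton X-100, 1% formaldehyde, 1 ug/ml Hoechst) was added. Nuclei counted on 4× images gave relative viability as treated counts over vehicle counts, reported as the median of duplicate plates.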

Compound in assay [2]: NC1(c2ccc(-c3nc4ccn5c(=O)[nH]nc5c4cc3-c3ccccc3)cc2)CCC1 [MK-2206] + N=C(N)NC(=N)NCCc1ccccc1 [Phenformin] (partner 250 µM)
The method, boiled down:
as §1

Compound in assay [3]: NC1(c2ccc(-c3nc4ccn5c(=O)[nH]nc5c4cc3-c3ccccc3)cc2)CCC1 [MK-2206] + Cc1nc(Nc2ncc(C(=O)Nc3c(C)cccc3Cl)s2)cc(N2CCN(CCO)CC2)n1 [Dasatinib] (partner 0.075 µM)
The essentials: as §1

Compound in assay [4]: CS(=O)(=O)N1CCN(Cc2cc3nc(-c4cccc5[nH]ncc45)nc(N4CCOCC4)c3s2)CC1 [Pictilisib] + Cc1nc(NC(=O)N2CCC[C@H]2C(N)=O)sc1-c1ccnc(C(C)(C)C(F)(F)F)c1 [Alpelisib] (partner 2 µM)
The essentials: as §1

Compound in assay [5]: NC1(c2ccc(-c3nc4ccn5c(=O)[nH]nc5c4cc3-c3ccccc3)cc2)CCC1 [MK-2206] + Nc1nc2[nH]cc(CCc3ccc(C(=O)N[C@@H](CCC(=O)O)C(=O)O)cc3)c2c(=O)[nH]1 [Pemetrexed] (partner 0.2 µM)
The essentials:
as §1

As for RERF-LC-KJ, the relative viability in assay [1] (first compound 0.01 µM) turned out to be 0.836; in assay [1] (first compound 0.03162 µM), 1.28; in assay [1] (first compound 0.3162 µM), 0.708; in assay [1] (first compound 1 µM) it was 0.69; in assay [2] (first compound 0.01 µM), 0.413; in assay [2] (first compound 0.03162 µM), 0.423. Moreover, the relative viability in assay [2] (first compound 0.3162 µM) is 0.408; in assay [2] (first compound 1 µM) it was 0.333; in assay [3] (first compound 0.01 µM) it was 0.788; in assay [3] (first compound 0.03162 µM), 0.796; in assay [3] (first compound 0.3162 µM), 0.607; in assay [3] (first compound 1 µM) it was 0.626. Also, the relative viability worked out at 0.784 in assay [4] (first compound 0.02 µM); 0.712 in assay [4] (first compound 0.06325 µM); 0.697 in assay [4] (first compound 0.6325 µM); 0.574 in assay [4] (first compound 2 µM); 0.489 in assay [5] (first compound 0.01 µM); 0.471 in assay [5] (first compound 0.03162 µM). Also, the relative viability in assay [5] (first compound 0.3162 µM) turned out to be 0.532; in assay [5] (first compound 1 µM), 0.476.

On to NCI-H441, for which the relative viability came out at 0.77 in assay [1] (first compound 0.01 µM); 0.639 in assay [1] (first compound 0.03162 µM); 0.6 in assay [1] (first compound 0.3162 µM); 0.505 in assay [1] (first compound 1 µM); 0.974 in assay [2] (first compound 0.01 µM); 0.865 in assay [2] (first compound 0.03162 µM). The relative viability in assay [2] (first compound 0.3162 µM) was 0.656; in assay [2] (first compound 1 µM) it was 0.449; in assay [3] (first compound 0.01 µM) it was 0.566; in assay [3] (first compound 0.03162 µM) it was 0.503; in assay [3] (first compound 0.3162 µM), 0.501; in assay [3] (first compound 1 µM), 0.422. Besides, the relative viability in assay [4] (first compound 0.02 µM) was 0.735; in assay [4] (first compound 0.06325 µM) it was 0.833; in assay [4] (first compound 0.6325 µM) it was 0.698; in assay [4] (first compound 2 µM) it was 0.541; in assay [5] (first compound 0.01 µM), 0.256; in assay [5] (first compound 0.03162 µM), 0.238. Moreover, the relative viability in assay [5] (first compound 0.3162 µM) stood at 0.255; in assay [5] (first compound 1 µM) it was 0.249.

As to NCI-H2170, the relative viability in assay [1] (first compound 0.01 µM) is 0.65; in assay [1] (first compound 0.03162 µM), 0.485; in assay [1] (first compound 0.3162 µM), 0.546; in assay [1] (first compound 1 µM), 0.512; in assay [2] (first compound 0.01 µM), 0.398; in assay [2] (first compound 0.03162 µM) it was 0.44. Further, the relative viability was 0.426 in assay [2] (first compound 0.3162 µM); 0.404 in assay [2] (first compound 1 µM); 0.611 in assay [3] (first compound 0.01 µM); 0.504 in assay [3] (first compound 0.03162 µM); 0.625 in assay [3] (first compound 0.3162 µM); 0.559 in assay [3] (first compound 1 µM). In addition, the relative viability in assay [4] (first compound 0.02 µM) was 0.834; in assay [4] (first compound 0.06325 µM), 0.879; in assay [4] (first compound 0.6325 µM), 0.813; in assay [4] (first compound 2 µM), 0.583; in assay [5] (first compound 0.01 µM) it was 0.246; in assay [5] (first compound 0.03162 µM), 0.264. Also, the relative viability is 0.286 in assay [5] (first compound 0.3162 µM) and 0.24 in assay [5] (first compound 1 µM).

Consider PC-14, for which the relative viability in assay [1] (first compound 0.01 µM) worked out at 0.956; in assay [1] (first compound 0.03162 µM), 1.05; in assay [1] (first compound 0.3162 µM), 1.1; in assay [1] (first compound 1 µM), 1.01; in assay [2] (first compound 0.01 µM), 0.493; in assay [2] (first compound 0.03162 µM), 0.663. Also, the relative viability in assay [2] (first compound 0.3162 µM) stood at 0.584; in assay [2] (first compound 1 µM), 0.525; in assay [3] (first compound 0.01 µM) it was 0.289; in assay [3] (first compound 0.03162 µM), 0.346; in assay [3] (first compound 0.3162 µM), 0.27; in assay [3] (first compound 1 µM) it was 0.294. Besides, the relative viability in assay [4] (first compound 0.02 µM) was found to be 0.924; in assay [4] (first compound 0.06325 µM) it was 0.943; in assay [4] (first compound 0.6325 µM), 1.02; in assay [4] (first compound 2 µM), 0.766; in assay [5] (first compound 0.01 µM), 0.129; in assay [5] (first compound 0.03162 µM) it was 0.14. The relative viability was determined as 0.164 in assay [5] (first compound 0.3162 µM) and 0.144 in assay [5] (first compound 1 µM).

As for NCI-H2009, the relative viability in assay [1] (first compound 0.01 µM) turned out to be 1.12; in assay [1] (first compound 0.03162 µM) it was 1.15; in assay [1] (first compound 0.3162 µM), 1.17; in assay [1] (first compound 1 µM), 1.13; in assay [2] (first compound 0.01 µM), 0.474; in assay [2] (first compound 0.03162 µM), 0.464. The relative viability in assay [2] (first compound 0.3162 µM) was 0.436; in assay [2] (first compound 1 µM), 0.4; in assay [3] (first compound 0.01 µM), 0.296; in assay [3] (first compound 0.03162 µM), 0.309; in assay [3] (first compound 0.3162 µM) it was 0.287; in assay [3] (first compound 1 µM) it was 0.325. The relative viability in assay [4] (first compound 0.02 µM) amounted to 1.19; in assay [4] (first compound 0.06325 µM), 1.17; in assay [4] (first compound 0.6325 µM), 1.13; in assay [4] (first compound 2 µM), 1.07; in assay [5] (first compound 0.01 µM), 1.05; in assay [5] (first compound 0.03162 µM), 1.01. Besides, the values for the relative viability in assay [5] (first compound 0.3162 µM) and in assay [5] (first compound 1 µM) were 1.05 and 1.03, respectively.

As for NCI-H1395, the relative viability came to 1.17 in assay [1] (first compound 0.01 µM); 1.63 in assay [1] (first compound 0.03162 µM); 1.12 in assay [1] (first compound 0.3162 µM); 0.927 in assay [1] (first compound 1 µM); 0.508 in assay [2] (first compound 0.01 µM); 0.481 in assay [2] (first compound 0.03162 µM). The relative viability is 0.4 in assay [2] (first compound 0.3162 µM); 0.354 in assay [2] (first compound 1 µM); 0.435 in assay [3] (first compound 0.01 µM); 0.399 in assay [3] (first compound 0.03162 µM); 0.413 in assay [3] (first compound 0.3162 µM); 0.362 in assay [3] (first compound 1 µM). For the same cell line, the relative viability in assay [4] (first compound 0.02 µM) was 1.11; in assay [4] (first compound 0.06325 µM), 1.03; in assay [4] (first compound 0.6325 µM), 0.855; in assay [4] (first compound 2 µM), 0.531; in assay [5] (first compound 0.01 µM), 0.807; in assay [5] (first compound 0.03162 µM) it was 0.869. In addition, the relative viability in assay [5] (first compound 0.3162 µM) amounted to 0.79; in assay [5] (first compound 1 µM), 0.812.

As for NCI-H1437, the relative viability in assay [1] (first compound 0.01 µM) turned out to be 1.07; in assay [1] (first compound 0.03162 µM) it was 1.16; in assay [1] (first compound 0.3162 µM), 1.18; in assay [1] (first compound 1 µM), 1.09; in assay [2] (first compound 0.01 µM), 0.297; in assay [2] (first compound 0.03162 µM) it was 0.265. Moreover, the relative viability in assay [2] (first compound 0.3162 µM) was found to be 0.306; in assay [2] (first compound 1 µM), 0.301; in assay [3] (first compound 0.01 µM), 0.425; in assay [3] (first compound 0.03162 µM), 0.424; in assay [3] (first compound 0.3162 µM), 0.412; in assay [3] (first compound 1 µM), 0.398. Moreover, the relative viability in assay [4] (first compound 0.02 µM) came to 0.932; in assay [4] (first compound 0.06325 µM) it was 0.912; in assay [4] (first compound 0.6325 µM), 0.68; in assay [4] (first compound 2 µM), 0.566; in assay [5] (first compound 0.01 µM), 0.321; in assay [5] (first compound 0.03162 µM) it was 0.325. For the same cell line, the values for the relative viability in assay [5] (first compound 0.3162 µM) and in assay [5] (first compound 1 µM) were 0.334 and 0.258, respectively.

Values taken from the supplement of paper PMC10307832.
